Among the data in paper PMC7614683, “A small molecule PI3Kα activator for cardioprotection and neuroregeneration” (Nature, 2023) are inhibition values, retold here.

Where two headings read alike, the source gives them in different places.

Holding throughout (experiment): SelectScreen Z-LYTE kinase activity assay (SI Table 6)
Assay type in all cases: biochemical

Test [1] concerns the target protein kinases of the Z-LYTE panel (Homo sapiens, UniProt Q9H792). An outline of the steps:
(§1)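 A single compound concentration of 1 μM was profiled in the vendor's Adapta, Lantha and Z-LYTE kinase assays. In gel-based follow-ups with 200 μM compound, phosphorylation was resolved on Phos-tag SDS-PAGE and quantified by Coomassie. The ATM run used 1 mM ATP with GST-p53 for 30 min, and the mTORC1 run used 250 μM ATP with 4E-BP1 for 3 h.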

Test [2] addresses protein kinases of the Z-LYTE panel (Homo sapiens, UniProt P42684). An outline of the steps:
as §1

The target in test [3] is protein kinases of the Z-LYTE panel (Homo sapiens, UniProt P00533). An outline of the steps: as §1
Chain of protein kinases of the Z-LYTE panel (Homo sapiens, UniProt P00533) (P00533 25-1210): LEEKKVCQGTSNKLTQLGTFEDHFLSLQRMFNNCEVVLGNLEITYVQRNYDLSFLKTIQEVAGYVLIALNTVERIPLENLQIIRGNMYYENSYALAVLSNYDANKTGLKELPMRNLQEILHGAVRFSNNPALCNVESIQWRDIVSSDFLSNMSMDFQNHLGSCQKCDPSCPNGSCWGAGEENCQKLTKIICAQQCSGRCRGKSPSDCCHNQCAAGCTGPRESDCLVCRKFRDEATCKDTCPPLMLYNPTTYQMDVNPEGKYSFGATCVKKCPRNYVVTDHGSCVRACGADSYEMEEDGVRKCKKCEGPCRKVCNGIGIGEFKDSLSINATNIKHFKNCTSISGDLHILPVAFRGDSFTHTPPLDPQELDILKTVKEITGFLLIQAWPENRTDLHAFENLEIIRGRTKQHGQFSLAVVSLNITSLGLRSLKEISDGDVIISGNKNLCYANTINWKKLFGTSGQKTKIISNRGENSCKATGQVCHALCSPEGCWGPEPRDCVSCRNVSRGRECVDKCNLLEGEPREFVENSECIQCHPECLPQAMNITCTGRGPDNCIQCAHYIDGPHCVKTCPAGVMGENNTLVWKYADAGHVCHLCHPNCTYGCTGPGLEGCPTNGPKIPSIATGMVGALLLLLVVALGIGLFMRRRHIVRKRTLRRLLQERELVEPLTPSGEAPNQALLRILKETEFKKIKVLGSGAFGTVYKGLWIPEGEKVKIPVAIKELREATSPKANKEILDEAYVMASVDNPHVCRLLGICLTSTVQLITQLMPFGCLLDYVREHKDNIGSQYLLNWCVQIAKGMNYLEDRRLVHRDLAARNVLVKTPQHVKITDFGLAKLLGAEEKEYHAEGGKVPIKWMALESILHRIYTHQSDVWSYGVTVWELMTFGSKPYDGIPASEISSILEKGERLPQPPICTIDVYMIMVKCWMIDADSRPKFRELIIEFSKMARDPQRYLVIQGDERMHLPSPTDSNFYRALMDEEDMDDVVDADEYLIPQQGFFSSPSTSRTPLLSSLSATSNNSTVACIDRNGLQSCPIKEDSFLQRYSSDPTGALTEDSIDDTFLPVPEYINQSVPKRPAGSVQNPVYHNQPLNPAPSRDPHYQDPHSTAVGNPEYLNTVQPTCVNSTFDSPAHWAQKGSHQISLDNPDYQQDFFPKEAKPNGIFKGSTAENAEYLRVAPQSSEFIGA
For test [4], the target named is protein kinases of the Z-LYTE panel (Homo sapiens, UniProt Q15303). In a few lines:
as §1

Test [5] addresses protein kinases of the Z-LYTE panel (Homo sapiens, UniProt P17948). An outline of the steps:
as §1

Test [6] deals with protein kinases of the Z-LYTE panel (Homo sapiens, UniProt P21802). In a few lines:
as §1

The target of test [7] is T1, protein kinases of the Z-LYTE panel (Homo sapiens, UniProt Q12866).
T1 sequence (Q12866 21-999): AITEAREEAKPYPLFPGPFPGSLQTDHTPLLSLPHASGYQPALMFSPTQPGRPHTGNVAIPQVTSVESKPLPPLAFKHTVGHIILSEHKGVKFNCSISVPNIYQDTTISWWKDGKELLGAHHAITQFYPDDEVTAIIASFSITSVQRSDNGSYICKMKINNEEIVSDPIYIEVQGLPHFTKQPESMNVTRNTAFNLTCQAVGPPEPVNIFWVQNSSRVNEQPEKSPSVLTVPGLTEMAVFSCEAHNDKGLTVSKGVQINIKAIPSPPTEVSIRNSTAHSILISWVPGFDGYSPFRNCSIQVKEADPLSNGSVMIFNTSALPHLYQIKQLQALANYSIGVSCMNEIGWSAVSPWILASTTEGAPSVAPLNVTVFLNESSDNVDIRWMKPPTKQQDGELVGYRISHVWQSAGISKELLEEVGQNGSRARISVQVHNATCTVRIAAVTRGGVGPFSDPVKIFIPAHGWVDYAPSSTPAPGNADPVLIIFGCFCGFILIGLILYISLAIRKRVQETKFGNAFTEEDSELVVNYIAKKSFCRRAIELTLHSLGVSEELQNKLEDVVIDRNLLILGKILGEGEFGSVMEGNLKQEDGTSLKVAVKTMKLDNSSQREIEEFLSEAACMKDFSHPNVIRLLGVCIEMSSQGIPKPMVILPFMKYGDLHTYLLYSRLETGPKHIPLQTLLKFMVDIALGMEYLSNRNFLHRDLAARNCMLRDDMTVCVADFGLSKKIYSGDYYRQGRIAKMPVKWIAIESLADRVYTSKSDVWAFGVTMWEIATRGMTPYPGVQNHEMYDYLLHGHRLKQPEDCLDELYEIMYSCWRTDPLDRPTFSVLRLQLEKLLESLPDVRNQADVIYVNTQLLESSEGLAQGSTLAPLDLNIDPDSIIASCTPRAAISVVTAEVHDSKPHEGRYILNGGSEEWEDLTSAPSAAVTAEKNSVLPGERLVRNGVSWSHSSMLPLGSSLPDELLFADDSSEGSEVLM
An outline of the steps: as §1

Test [8] concerns the target protein kinases of the Z-LYTE panel (Homo sapiens, UniProt P22607). An outline of the steps: as §1

Chain of protein kinases of the Z-LYTE panel (Homo sapiens, UniProt Q15303) (Q15303 26-1308): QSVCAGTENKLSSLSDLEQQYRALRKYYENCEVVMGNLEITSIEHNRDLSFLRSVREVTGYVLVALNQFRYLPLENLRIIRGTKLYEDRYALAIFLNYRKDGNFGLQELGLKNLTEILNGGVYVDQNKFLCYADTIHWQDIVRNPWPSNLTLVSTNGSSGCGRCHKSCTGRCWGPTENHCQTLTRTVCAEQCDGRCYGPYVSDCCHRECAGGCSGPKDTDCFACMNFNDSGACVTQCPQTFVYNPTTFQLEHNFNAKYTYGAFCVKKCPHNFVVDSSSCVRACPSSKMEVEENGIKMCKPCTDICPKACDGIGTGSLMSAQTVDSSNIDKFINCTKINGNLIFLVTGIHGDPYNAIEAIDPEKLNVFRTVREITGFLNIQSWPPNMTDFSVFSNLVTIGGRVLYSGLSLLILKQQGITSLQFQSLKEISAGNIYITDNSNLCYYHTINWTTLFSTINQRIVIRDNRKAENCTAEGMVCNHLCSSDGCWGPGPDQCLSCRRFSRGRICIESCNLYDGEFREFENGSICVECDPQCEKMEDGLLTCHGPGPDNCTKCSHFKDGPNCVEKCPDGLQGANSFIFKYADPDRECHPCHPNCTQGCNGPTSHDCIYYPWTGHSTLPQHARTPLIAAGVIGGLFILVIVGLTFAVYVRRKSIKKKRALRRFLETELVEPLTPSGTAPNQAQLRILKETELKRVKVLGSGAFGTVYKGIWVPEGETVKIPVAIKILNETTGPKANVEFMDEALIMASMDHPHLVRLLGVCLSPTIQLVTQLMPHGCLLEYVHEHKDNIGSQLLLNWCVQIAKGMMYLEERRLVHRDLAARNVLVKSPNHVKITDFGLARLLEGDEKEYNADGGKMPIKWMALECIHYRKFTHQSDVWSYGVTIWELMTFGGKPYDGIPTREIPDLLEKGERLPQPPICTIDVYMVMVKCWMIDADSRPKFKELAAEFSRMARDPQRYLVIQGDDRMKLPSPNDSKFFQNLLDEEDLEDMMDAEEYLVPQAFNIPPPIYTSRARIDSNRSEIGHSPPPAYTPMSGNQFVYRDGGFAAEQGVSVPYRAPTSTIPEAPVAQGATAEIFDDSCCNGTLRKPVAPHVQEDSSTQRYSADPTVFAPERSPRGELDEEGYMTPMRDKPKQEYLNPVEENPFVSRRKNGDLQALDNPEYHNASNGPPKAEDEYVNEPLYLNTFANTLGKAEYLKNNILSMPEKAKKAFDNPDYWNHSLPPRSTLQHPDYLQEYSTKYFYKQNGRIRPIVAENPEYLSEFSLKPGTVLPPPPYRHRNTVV
Chain of protein kinases of the Z-LYTE panel (Homo sapiens, UniProt P42684) (P42684 whole entry): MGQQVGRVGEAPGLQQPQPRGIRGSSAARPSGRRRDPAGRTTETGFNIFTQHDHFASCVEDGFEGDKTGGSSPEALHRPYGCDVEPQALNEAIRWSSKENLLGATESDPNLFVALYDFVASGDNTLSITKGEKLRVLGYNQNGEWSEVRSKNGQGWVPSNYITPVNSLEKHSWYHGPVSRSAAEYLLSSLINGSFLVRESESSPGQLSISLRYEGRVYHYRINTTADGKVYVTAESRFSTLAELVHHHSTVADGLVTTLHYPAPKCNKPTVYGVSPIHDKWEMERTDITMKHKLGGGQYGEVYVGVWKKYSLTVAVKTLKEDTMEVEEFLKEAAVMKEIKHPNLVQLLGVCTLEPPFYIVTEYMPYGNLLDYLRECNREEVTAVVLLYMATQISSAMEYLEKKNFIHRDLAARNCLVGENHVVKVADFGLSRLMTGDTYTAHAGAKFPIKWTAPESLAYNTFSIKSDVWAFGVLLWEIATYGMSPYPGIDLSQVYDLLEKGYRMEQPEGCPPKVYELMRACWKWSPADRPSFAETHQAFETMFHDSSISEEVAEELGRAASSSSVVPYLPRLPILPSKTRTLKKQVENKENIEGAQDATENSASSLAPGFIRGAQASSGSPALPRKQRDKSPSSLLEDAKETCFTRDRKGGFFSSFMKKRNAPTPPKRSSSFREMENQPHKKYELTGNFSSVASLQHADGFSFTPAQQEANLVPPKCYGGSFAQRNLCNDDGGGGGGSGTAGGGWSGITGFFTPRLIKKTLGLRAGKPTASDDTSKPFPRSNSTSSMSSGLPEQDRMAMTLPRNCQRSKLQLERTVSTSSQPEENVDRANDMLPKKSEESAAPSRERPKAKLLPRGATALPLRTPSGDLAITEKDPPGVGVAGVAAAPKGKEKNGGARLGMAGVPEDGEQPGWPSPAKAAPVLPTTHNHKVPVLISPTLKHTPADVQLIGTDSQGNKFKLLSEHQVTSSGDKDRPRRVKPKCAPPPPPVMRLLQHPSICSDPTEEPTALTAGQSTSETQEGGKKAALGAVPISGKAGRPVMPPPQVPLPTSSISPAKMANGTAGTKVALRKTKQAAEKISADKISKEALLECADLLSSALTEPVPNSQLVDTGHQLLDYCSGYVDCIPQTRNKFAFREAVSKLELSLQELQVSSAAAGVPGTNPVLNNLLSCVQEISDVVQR
Chain of protein kinases of the Z-LYTE panel (Homo sapiens, UniProt P17948) (P17948 27-1338): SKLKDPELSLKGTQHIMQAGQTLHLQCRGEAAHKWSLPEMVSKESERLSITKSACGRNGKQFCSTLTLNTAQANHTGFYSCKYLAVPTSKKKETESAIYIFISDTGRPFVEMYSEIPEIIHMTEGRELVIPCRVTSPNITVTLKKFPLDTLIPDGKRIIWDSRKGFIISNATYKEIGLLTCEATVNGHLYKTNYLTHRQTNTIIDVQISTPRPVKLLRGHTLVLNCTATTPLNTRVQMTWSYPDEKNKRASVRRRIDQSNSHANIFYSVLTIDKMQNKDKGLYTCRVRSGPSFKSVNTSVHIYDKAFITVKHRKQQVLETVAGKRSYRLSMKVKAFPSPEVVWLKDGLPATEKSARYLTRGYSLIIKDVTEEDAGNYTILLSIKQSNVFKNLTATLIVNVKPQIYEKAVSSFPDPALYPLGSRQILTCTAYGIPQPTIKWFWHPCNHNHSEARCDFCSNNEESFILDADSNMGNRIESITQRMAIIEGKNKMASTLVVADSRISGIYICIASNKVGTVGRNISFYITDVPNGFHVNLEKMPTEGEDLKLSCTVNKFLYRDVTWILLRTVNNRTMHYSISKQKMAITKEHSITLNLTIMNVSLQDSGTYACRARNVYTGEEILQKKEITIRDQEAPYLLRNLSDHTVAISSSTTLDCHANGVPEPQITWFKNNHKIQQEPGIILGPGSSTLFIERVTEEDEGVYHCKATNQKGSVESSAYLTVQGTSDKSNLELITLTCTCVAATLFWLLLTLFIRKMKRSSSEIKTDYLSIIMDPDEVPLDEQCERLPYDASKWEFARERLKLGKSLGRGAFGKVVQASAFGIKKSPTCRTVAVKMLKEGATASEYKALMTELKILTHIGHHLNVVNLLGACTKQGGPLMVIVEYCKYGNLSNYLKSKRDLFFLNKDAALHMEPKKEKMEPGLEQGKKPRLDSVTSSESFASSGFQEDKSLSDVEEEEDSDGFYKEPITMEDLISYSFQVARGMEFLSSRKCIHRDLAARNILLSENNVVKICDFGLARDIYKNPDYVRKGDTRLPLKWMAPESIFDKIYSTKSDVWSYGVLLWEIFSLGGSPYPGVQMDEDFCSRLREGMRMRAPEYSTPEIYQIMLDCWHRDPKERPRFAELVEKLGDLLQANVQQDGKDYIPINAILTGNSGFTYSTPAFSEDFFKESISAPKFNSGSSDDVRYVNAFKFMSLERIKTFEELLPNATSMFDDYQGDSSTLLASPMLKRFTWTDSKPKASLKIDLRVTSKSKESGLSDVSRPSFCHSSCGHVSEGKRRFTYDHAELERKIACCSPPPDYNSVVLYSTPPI

Turning to `CCN1CCN(c2ccc(Nc3cc(Nc4cccc5c4N(C(C)=O)CC5)ccn3)cc2)CC1` [Compound 1938], the inhibition (usually the share of the control response that was lost under treatment) at 1 µM in test [1] (read-out: % Inhibition Point 1) came out at 25%; in test [1] (read-out: % Inhibition Point 2), 18%; in test [1] (read-out: % Inhibition mean), 21%; in test [2] (read-out: % Inhibition Point 1) it was 22%; in test [2] (read-out: % Inhibition Point 2), 20%; in test [2] (read-out: % Inhibition mean), 21%. For the same molecule, the inhibition at 1 µM in test [3] (read-out: % Inhibition Point 1) is 18%; in test [3] (read-out: % Inhibition Point 2) it was 17%; in test [3] (read-out: % Inhibition mean), 18%; in test [4] (read-out: % Inhibition Point 1), 9%; in test [4] (read-out: % Inhibition Point 2) it was 9.48%; in test [4] (read-out: % Inhibition mean) it was 9%. Moreover, the inhibition at 1 µM in test [5] (read-out: % Inhibition Point 1) amounted to 1.74%; in test [5] (read-out: % Inhibition Point 2), 1.66%; in test [5] (read-out: % Inhibition mean), 1.7%; in test [6] (read-out: % Inhibition Point 1), 13%; in test [6] (read-out: % Inhibition Point 2) it was 16%; in test [6] (read-out: % Inhibition mean), 14%. The inhibition at 1 µM in test [7] (read-out: % Inhibition Point 1) was found to be 12%; in test [7] (read-out: % Inhibition Point 2), 9%; in test [7] (read-out: % Inhibition mean), 11%; in test [8] (read-out: % Inhibition Point 1) it was 6%; in test [8] (read-out: % Inhibition Point 2) it was 6%; in test [8] (read-out: % Inhibition mean), 6%.
